The source of these data is ChEMBL document CHEMBL5584307, “Discovery of a Potent and Orally Bioavailable Xanthine Oxidase/Urate Transporter 1 Dual Inhibitor as a Potential Treatment for Hyperuricemia and Gout” (J Med Chem, 2024).

Usually IC50 stands for the point on the concentration scale where inhibition reaches its midpoint. As usually defined, the half-life is the time in which the quantity being followed falls by half. As a reminder, the Cmax is the highest concentration seen after dosing. Usually AUC(0-t) stands for exposure summed from dosing to a finite time, without extrapolation to infinity. Usually clearance stands for the volume of plasma or blood freed of the substance per unit of time.

Series [1] addresses T1, Xanthine dehydrogenase/oxidase (Homo sapiens, UniProt P47989). As to the kind of experiment: Inhibition of xanthine oxidase (unknown origin) by absorbance based assay.
The target in series [2] is T2, Solute carrier family 22 member 12 (Homo sapiens, UniProt Q96S37).
T2 sequence (Q96S37 whole entry): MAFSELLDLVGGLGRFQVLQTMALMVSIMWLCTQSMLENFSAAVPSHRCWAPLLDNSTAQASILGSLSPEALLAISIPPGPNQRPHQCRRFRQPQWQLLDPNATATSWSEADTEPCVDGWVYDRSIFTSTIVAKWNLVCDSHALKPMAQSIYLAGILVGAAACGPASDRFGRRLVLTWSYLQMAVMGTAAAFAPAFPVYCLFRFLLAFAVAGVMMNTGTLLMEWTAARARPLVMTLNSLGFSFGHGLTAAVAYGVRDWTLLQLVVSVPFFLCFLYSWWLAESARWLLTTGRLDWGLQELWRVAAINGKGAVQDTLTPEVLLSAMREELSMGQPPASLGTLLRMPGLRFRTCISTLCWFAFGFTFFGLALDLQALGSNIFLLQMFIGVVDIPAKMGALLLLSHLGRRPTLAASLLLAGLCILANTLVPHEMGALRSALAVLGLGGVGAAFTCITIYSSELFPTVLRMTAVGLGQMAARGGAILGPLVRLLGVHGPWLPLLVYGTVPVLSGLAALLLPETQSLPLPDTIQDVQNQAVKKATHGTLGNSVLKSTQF
As to the kind of experiment: Inhibition of URAT1 (unknown origin) by absorbance based assay.

Series [3] in a line: Half life in overnight-fasted Sprague-Dawley rat at 5 mg/kg, po measured upto 24 hrs by LC-MS/MS analysis. It counts as ADME, organism-based. The settings on record: in vivo.
The nature of series [4]: Cmax in overnight-fasted Sprague-Dawley rat at 5 mg/kg, po measured upto 24 hrs by LC-MS/MS analysis. It counts as ADME, organism-based. The conditions noted are these: in vivo.
The nature of series [5]: AUC (last) in overnight-fasted Sprague-Dawley rat at 5 mg/kg, po measured upto 24 hrs by LC-MS/MS analysis. Type of series: ADME, organism-based. The settings on record: in vivo.
Series [6] can be described thus: AUC (last) in overnight-fasted Sprague-Dawley rat at 1 mg/kg, iv measured upto 24 hrs by LC-MS/MS analysis. Type of series: ADME, organism-based. The conditions noted are these: in vivo.
A short description of series [7]: Clearance in overnight-fasted Sprague-Dawley rat at 1 mg/kg, iv measured upto 24 hrs by LC-MS/MS analysis. Type of series: ADME, organism-based. The conditions noted are these: in vivo.
Series [8] in a line: Volume of distribution at steady state in overnight-fasted Sprague-Dawley rat at 5 mg/kg, po or 1 mg/kg, iv measured upto 24 hrs by LC-MS/MS analysis. Type of series: ADME, organism-based. The settings on record: in vivo.
The nature of series [9]: Oral bioavailability in overnight-fasted Sprague-Dawley rat at 5 mg/kg measured upto 24 hrs by LC-MS/MS analysis. Type of series: ADME, organism-based. The settings on record: in vivo.
For series [10], the target named is T1, Xanthine dehydrogenase/oxidase. As to the kind of experiment: Inhibition of xanthine oxidase (unknown origin) at 10 uM by absorbance based assay.
The test system of series [11] is Sapajus apella. As to the kind of experiment: Urate lowering effect in Tufted capuchin monkey assessed as fraction excretion of uric acid at 30 mg/kg/day, po qd for 3 days consecutively relative to control. It counts as functional. The settings on record: time 3 day.
Series [12] deals with Sapajus apella. The settings on record: dose 30.0 mg/kg/day, route po, time 3.0 day.
The target in series [13] is T2, Solute carrier family 22 member 12. The series can be described thus: Inhibition of URAT1 (unknown origin) at 10 uM by absorbance based assay.
The subject of series [14] is Sapajus apella. As to the kind of experiment: Urate lowering effect in Tufted capuchin monkey assessed as serum xanthine level at 2 mg/kg/day, po qd for 3 days consecutively. Type of series: functional. The settings on record: time 3 day.
Series [15] relates to Sapajus apella. The series can be described thus: Urate lowering effect in Tufted capuchin monkey assessed as urine xanthine level at 2 mg/kg/day, po qd for 3 days consecutively. It counts as functional. The settings on record: time 3 day.
Series [16] concerns Sapajus apella. The conditions noted are these: dose 2.0 mg/kg/day, route po, time 3.0 day.

T1 sequence (P47989 whole entry): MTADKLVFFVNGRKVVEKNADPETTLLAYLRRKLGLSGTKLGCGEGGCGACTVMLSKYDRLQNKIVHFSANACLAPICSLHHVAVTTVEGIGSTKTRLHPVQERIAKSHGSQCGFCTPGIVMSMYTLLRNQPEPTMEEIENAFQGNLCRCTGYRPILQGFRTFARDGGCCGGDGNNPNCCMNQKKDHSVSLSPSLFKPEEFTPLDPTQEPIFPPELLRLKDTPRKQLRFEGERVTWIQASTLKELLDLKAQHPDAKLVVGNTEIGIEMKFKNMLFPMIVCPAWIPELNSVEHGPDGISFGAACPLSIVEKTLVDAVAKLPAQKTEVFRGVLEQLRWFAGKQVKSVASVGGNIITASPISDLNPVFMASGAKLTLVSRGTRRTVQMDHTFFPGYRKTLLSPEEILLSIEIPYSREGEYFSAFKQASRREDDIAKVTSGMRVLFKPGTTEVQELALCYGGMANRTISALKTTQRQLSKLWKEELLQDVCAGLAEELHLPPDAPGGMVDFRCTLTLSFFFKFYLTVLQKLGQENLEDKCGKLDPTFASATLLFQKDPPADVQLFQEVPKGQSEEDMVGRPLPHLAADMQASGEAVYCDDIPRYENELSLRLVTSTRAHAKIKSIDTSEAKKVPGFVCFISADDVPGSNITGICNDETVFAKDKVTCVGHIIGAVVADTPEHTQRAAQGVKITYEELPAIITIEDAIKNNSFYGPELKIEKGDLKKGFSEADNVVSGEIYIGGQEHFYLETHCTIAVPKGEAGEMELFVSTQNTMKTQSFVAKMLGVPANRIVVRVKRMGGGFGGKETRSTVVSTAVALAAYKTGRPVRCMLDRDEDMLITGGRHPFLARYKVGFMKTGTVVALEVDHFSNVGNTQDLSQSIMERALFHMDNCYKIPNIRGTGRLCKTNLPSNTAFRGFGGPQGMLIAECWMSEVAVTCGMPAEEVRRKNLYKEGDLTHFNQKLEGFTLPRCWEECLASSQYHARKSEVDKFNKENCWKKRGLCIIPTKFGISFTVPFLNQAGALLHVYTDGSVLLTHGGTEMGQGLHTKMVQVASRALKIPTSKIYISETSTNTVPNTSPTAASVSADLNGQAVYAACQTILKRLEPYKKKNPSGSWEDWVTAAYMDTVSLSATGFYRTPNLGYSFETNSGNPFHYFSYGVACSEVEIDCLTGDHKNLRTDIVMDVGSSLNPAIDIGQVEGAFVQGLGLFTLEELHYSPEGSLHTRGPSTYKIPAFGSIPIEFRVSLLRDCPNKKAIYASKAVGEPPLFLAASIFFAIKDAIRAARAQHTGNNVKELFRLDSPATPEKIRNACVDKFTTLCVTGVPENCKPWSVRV

`COc1cc(-c2cc(C#N)cc3ccoc23)ccc1C(=O)O`: the concentration for half-maximal inhibition (IC50) was more than 10000 nM in series [1] and 3750 nM in series [2].

For the molecule `N#Cc1cc(-c2ccc(C(=O)O)c(O)c2)c2oc(Cl)cc2c1`, the IC50 in series [2] is 37 nM. This molecule had a half-life in series [3] of 3.05 h. The same molecule returned a peak concentration (Cmax) in series [4] of 3700 ng/mL. For the same molecule, the AUC(0-t) at 24 h is 28100 ng·h/mL in series [5] and 5480 ng·h/mL in [6]. The same molecule yielded a clearance in series [7] of 2.77 mL/min/kg. Besides, the Vdss in [8] stood at 0.4 L/kg. The bioavailability in [9] worked out at 93.9%.

In the case of `N#Cc1cc2c(c(-c3ccc(C(=O)O)c(O)c3)c1)OCC2`, the half-inhibitory concentration (IC50) in series [1] is 46 nM; in [2], 352 nM.

In turn, `N#Cc1cc(-c2ccc(C(=O)O)c(O)c2)c2ccoc2c1` had an IC50 in series [1] of 39 nM. This molecule gave a half-life in series [3] of 2.66 h. Further, the peak level in series [4] (Cmax) was 6550 ng/mL. For the same molecule, the exposure AUC(0-t) at 24 h in series [5] came out at 43200 ng·h/mL; in series [6] it was 8530 ng·h/mL. Moreover, in [7], the clearance came to 1.93 mL/min/kg. In series [8], this molecule registered a Vdss of 0.155 L/kg. Besides, the bioavailability in [9] is 99.5%.

For `CC(C)COc1ccc(-c2cccc(O)c2C(=O)O)cc1C#N`, the IC50 in series [1] and in series [2] was more than 10000 nM throughout.

Turning to `N#Cc1cc(-c2ccc(C(=O)O)cc2)c2occc2c1`, the IC50 stood at 591 nM in series [1] and 598 nM in [2].

Take `CC(C)COc1ccc(-c2ccc(C(=O)O)c(O)c2)cc1C#N`: the figures for the half-maximal inhibitory concentration (IC50) in series [1] and in [2] were 18 nM and 8300 nM, respectively.

As for `O=C(O)c1ccc(-c2cc(C(F)(F)F)cc3ccoc23)cc1O`, the half-inhibitory concentration (IC50) in [1] is 388 nM; in series [2], 3190 nM.

In the case of `N#Cc1cc(-c2ccc(C(=O)O)c(O)c2)c2ncsc2c1`, the half-maximal inhibitory concentration (IC50) in [1] amounted to 101 nM; in series [2] it was 3640 nM.

Consider `N#Cc1cc(-c2ccc(C(=O)O)c(O)c2)c2sccc2c1`, for which the IC50 in [1] was 133 nM; in [2], 444 nM.

For the molecule `Cc1cc2cc(C#N)cc(-c3ccc(C(=O)O)c(O)c3)c2o1`, the half-maximal inhibitory concentration (IC50) in [1] came to 61 nM; in series [2], 623 nM.

With `N#Cc1cc2c(c(-c3ccc(C(=O)O)c(O)c3)c1)CCC2`, the 50% inhibitory concentration (IC50) in [1] worked out at 560 nM; in series [2], 107 nM.

For `N#Cc1cccc(-c2ccc(C(=O)O)c(O)c2)c1`, the 50% inhibitory concentration (IC50) in [1] turned out to be 37 nM; in [2], 2200 nM.

Regarding `N#Cc1cc(-c2ccc(C(=O)O)c(O)c2)c2oc(C(F)(F)F)cc2c1`, the IC50 in series [1] came out at 347 nM; in [2], 104 nM.

For the molecule `N#Cc1cc(-c2ccc(C(=O)O)c(O)c2)c2ccsc2c1`, in series [3], the half-life was 1.86 h. In series [4], this molecule yielded a Cmax of 2050 ng/mL. The figures for the AUC(0-t) at 24 h in series [5] and in series [6] were 2430 ng·h/mL and 902 ng·h/mL, respectively. The clearance in [7] turned out to be 18.6 mL/min/kg. For the same molecule, the Vdss in series [8] turned out to be 0.4 L/kg. Further, the bioavailability in series [9] stood at 55.8%.

`N#Cc1cc(-c2ccc(C(=O)O)c(O)c2)c2occc2c1`: in [3], the half-life was 3.45 h. Besides, the Cmax in [4] was found to be 6830 ng/mL. In addition, the exposure AUC(0-t) at 24 h in series [5] is 44400 ng·h/mL; in series [6] it was 6860 ng·h/mL. In [7], this molecule registered a clearance of 2.4 mL/min/kg. Further, in series [8], the Vdss amounted to 0.399 L/kg. The bioavailability in [9] is 131%.

Regarding `CCc1oc2ccccc2c1C(=O)c1cc(Br)c(O)c(Br)c1` [BENZBROMARONE], the “inhibition (INH)” value in series [10] is given as “Not Active”. In the series on Sapajus apella [11], the Activity came to 42.3%. The same molecule gave an AUC in the series with Sapajus apella [12] of 894000 ng·h/mL.

On to `N#Cc1cc(-c2ccc(C(=O)O)c(O)c2)c2occ(C(F)(F)F)c2c1`, for which the concentration for half-maximal inhibition (IC50) in series [1] came out at 8 nM; in [2], 1650 nM.

As for `Cc1nc(-c2ccc(OCC(C)C)c(C#N)c2)sc1C(=O)O` [FEBUXOSTAT], the “inhibition (INH)” value in series [13] is “Not Active”. The Activity with Sapajus apella [14] was determined as 6.61 µg·h/mL; with Sapajus apella [15] it was 32.1 µg·h/mL. Further, the AUC in the series with Sapajus apella [16] was determined as 478000 ng·h/mL.

As for `N#Cc1cc(-c2ccc(C(=O)O)c(O)c2)c2cc[nH]c2c1`, the concentration for half-maximal inhibition (IC50) in [1] is 27 nM; in series [2] it was more than 10000 nM.
